The text below walks through data of the NIST ThermoML archive (doi:10.1021/je200050q).

Numbers after ± are expanded uncertainties.

The nature of the data set: activity coefficient (dimensionless); of the first substance listed, at infinite dilution; xn = mol fraction of the nth substance listed. Particulars: 101 kPa, Liquid, Chromatography, x1 = 0.

For the compound `CCCCCCCCC` [nonane] + CCCCn1cc[n+](C)c1.O=[N+]([O-])[O-], the activity coefficient is 263 ± 15 (303.15 K); 238 ± 13 (313.15 K); 218 ± 12 (323.15 K); 200 ± 11 (333.15 K); 184 ± 10 (343.15 K); 171 ± 9.6 (353.15 K). Where the note is “363.15 K”, the activity coefficient came out at 159 ± 8.9.
As for `CC#N` [acetonitrile] + CCCCn1cc[n+](C)c1.O=[N+]([O-])[O-], the activity coefficient (303.15 K) came out at 0.6 ± 0.035; the activity coefficient (313.15 K) worked out at 0.605 ± 0.035; the activity coefficient (323.15 K) worked out at 0.615 ± 0.035; the activity coefficient (333.15 K) was 0.62 ± 0.035; the activity coefficient (343.15 K) came out at 0.626 ± 0.036; the activity coefficient (353.15 K) stood at 0.63 ± 0.036. Further, the activity coefficient (363.15 K) came out at 0.644 ± 0.036.
Regarding `CC1CCCCC1` [methylcyclohexane] + CCCCn1cc[n+](C)c1.O=[N+]([O-])[O-], the activity coefficient turned out to be 45.3 ± 2.5 (303.15 K); 42.1 ± 2.4 (313.15 K); 39.4 ± 2.2 (323.15 K); 37 ± 2.1 (333.15 K); 34.9 ± 1.9 (343.15 K); 33 ± 1.8 (353.15 K). In addition, the activity coefficient (363.15 K) amounted to 31.2 ± 1.7.
On to `C1CCCCC1` [cyclohexane] + CCCCn1cc[n+](C)c1.O=[N+]([O-])[O-], for which the activity coefficient was 29.8 ± 1.7 (303.15 K); 27.6 ± 1.5 (313.15 K); 25.6 ± 1.4 (323.15 K); 23.9 ± 1.3 (333.15 K); 22.4 ± 1.2 (343.15 K); 21.1 ± 1.2 (353.15 K). Also, the activity coefficient (363.15 K) was 19.9 ± 1.1.
As for `CCO` [ethanol] + CCCCn1cc[n+](C)c1.O=[N+]([O-])[O-], the activity coefficient (303.15 K) stood at 0.564 ± 0.034; the activity coefficient (313.15 K) worked out at 0.543 ± 0.033; the activity coefficient (323.15 K) amounted to 0.529 ± 0.033; the activity coefficient (333.15 K) is 0.52 ± 0.033; the activity coefficient (343.15 K) turned out to be 0.511 ± 0.032; the activity coefficient (353.15 K) worked out at 0.508 ± 0.032. For the same compound, the activity coefficient (363.15 K) was determined as 0.507 ± 0.032.
Turning to `CC(C)=O` [acetone] + CCCCn1cc[n+](C)c1.O=[N+]([O-])[O-], the activity coefficient is, setting by setting: (303.15 K) 1.11 ± 0.055; (313.15 K) 1.12 ± 0.055; (323.15 K) 1.13 ± 0.056; (333.15 K) 1.16 ± 0.058; (343.15 K) 1.17 ± 0.059; (353.15 K) 1.23 ± 0.062. Also, the activity coefficient (363.15 K) was determined as 1.25 ± 0.063.
On to `CO` [methanol] + CCCCn1cc[n+](C)c1.O=[N+]([O-])[O-], for which the activity coefficient was found to be 0.322 ± 0.029 (303.15 K); 0.318 ± 0.029 (313.15 K); 0.315 ± 0.029 (323.15 K); 0.31 ± 0.029 (333.15 K); 0.307 ± 0.029 (343.15 K); 0.303 ± 0.029 (353.15 K). Further, for the setting “363.15 K”, the activity coefficient came to 0.302 ± 0.029.
For the compound `Cc1ccccc1C` [1,2-dimethylbenzene] + CCCCn1cc[n+](C)c1.O=[N+]([O-])[O-], the activity coefficient reads like this: (303.15 K) 4.31 ± 0.24; (313.15 K) 4.38 ± 0.24; (323.15 K) 4.44 ± 0.25; (333.15 K) 4.49 ± 0.25; (343.15 K) 4.54 ± 0.25; (353.15 K) 4.58 ± 0.25. In addition, the activity coefficient (363.15 K) is 4.63 ± 0.26.
For the compound `c1ccccc1` [benzene] + CCCCn1cc[n+](C)c1.O=[N+]([O-])[O-], the activity coefficient was found to be 1.85 ± 0.1 (303.15 K); 1.88 ± 0.1 (313.15 K); 1.91 ± 0.1 (323.15 K); 1.95 ± 0.11 (333.15 K); 2.01 ± 0.11 (343.15 K); 1.99 ± 0.11 (353.15 K). Besides, the activity coefficient (363.15 K) was 2.02 ± 0.11.
Turning to `CCc1ccccc1` [ethylbenzene] + CCCCn1cc[n+](C)c1.O=[N+]([O-])[O-], the activity coefficient (303.15 K) stood at 5.53 ± 0.31; the activity coefficient (313.15 K) was found to be 5.55 ± 0.31; the activity coefficient (323.15 K) is 5.56 ± 0.31; the activity coefficient (333.15 K) is 5.56 ± 0.31; the activity coefficient (343.15 K) amounted to 5.6 ± 0.31; the activity coefficient (353.15 K) was determined as 5.59 ± 0.31. In addition, the activity coefficient (363.15 K) was found to be 5.61 ± 0.31.
As for `Cc1ccccc1` [toluene] + CCCCn1cc[n+](C)c1.O=[N+]([O-])[O-], the activity coefficient was found to be 3.09 ± 0.17 (303.15 K); 3.15 ± 0.17 (313.15 K); 3.19 ± 0.18 (323.15 K); 3.24 ± 0.18 (333.15 K); 3.29 ± 0.18 (343.15 K); 3.33 ± 0.18 (353.15 K). Further, for the setting “363.15 K”, the activity coefficient is 3.37 ± 0.19.
On to `ClC(Cl)(Cl)Cl` [tetrachloromethane] + CCCCn1cc[n+](C)c1.O=[N+]([O-])[O-], for which the activity coefficient is, setting by setting: (303.15 K) 2.09 ± 0.12; (313.15 K) 2.17 ± 0.12; (323.15 K) 2.4 ± 0.13; (333.15 K) 2.52 ± 0.14; (343.15 K) 2.65 ± 0.15; (353.15 K) 2.81 ± 0.15. The activity coefficient (363.15 K) turned out to be 2.83 ± 0.16.
For `CCCCCCCC` [octane] + CCCCn1cc[n+](C)c1.O=[N+]([O-])[O-], the activity coefficient stood at 168 ± 9.4 (303.15 K); 154 ± 8.6 (313.15 K); 141 ± 7.9 (323.15 K); 131 ± 7.3 (333.15 K); 121 ± 6.8 (343.15 K); 113 ± 6.3 (353.15 K). Moreover, the activity coefficient (363.15 K) came out at 106 ± 5.9.
For the compound `ClC(Cl)Cl` [trichloromethane] + CCCCn1cc[n+](C)c1.O=[N+]([O-])[O-], the activity coefficient runs as follows: (303.15 K) 0.28 ± 0.028; (313.15 K) 0.316 ± 0.029; (323.15 K) 0.334 ± 0.029; (333.15 K) 0.39 ± 0.03; (343.15 K) 0.415 ± 0.03; (353.15 K) 0.445 ± 0.031. Further, the activity coefficient (363.15 K) was 0.504 ± 0.032.
As for `Cc1ccc(C)cc1` [1,4-dimethylbenzene] + CCCCn1cc[n+](C)c1.O=[N+]([O-])[O-], the activity coefficient is, setting by setting: (303.15 K) 5.06 ± 0.28; (313.15 K) 5.17 ± 0.29; (323.15 K) 5.16 ± 0.29; (333.15 K) 5.22 ± 0.29; (343.15 K) 5.22 ± 0.29; (353.15 K) 5.24 ± 0.29. Also, the activity coefficient (363.15 K) was found to be 5.26 ± 0.29.
Turning to `ClCCl` [dichloromethane] + CCCCn1cc[n+](C)c1.O=[N+]([O-])[O-], the activity coefficient by setting is: (303.15 K) 0.464 ± 0.031; (313.15 K) 0.491 ± 0.032; (323.15 K) 0.526 ± 0.033; (333.15 K) 0.552 ± 0.033; (343.15 K) 0.579 ± 0.034; (353.15 K) 0.602 ± 0.035. Further, the activity coefficient (363.15 K) came out at 0.64 ± 0.036.
`Cc1cccc(C)c1` [1,3-dimethylbenzene] + CCCCn1cc[n+](C)c1.O=[N+]([O-])[O-]: the activity coefficient is, setting by setting: (303.15 K) 5.42 ± 0.3; (313.15 K) 5.47 ± 0.3; (323.15 K) 5.5 ± 0.3; (333.15 K) 5.55 ± 0.31; (343.15 K) 5.57 ± 0.31; (353.15 K) 5.62 ± 0.31. Besides, the activity coefficient (363.15 K) is 5.61 ± 0.31.
As for `CCOC(C)=O` [ethyl acetate] + CCCCn1cc[n+](C)c1.O=[N+]([O-])[O-], the activity coefficient (303.15 K) was 2.93 ± 0.16; the activity coefficient (313.15 K) is 2.98 ± 0.17; the activity coefficient (323.15 K) is 3.01 ± 0.17; the activity coefficient (333.15 K) worked out at 3.04 ± 0.17; the activity coefficient (343.15 K) was found to be 3.07 ± 0.17; the activity coefficient (353.15 K) was determined as 3.18 ± 0.18. For the same compound, for the setting “363.15 K”, the activity coefficient worked out at 3.25 ± 0.18.
For `CCCCCC` [hexane] + CCCCn1cc[n+](C)c1.O=[N+]([O-])[O-], the activity coefficient is, setting by setting: (303.15 K) 63.9 ± 3.6; (313.15 K) 58.1 ± 3.2; (323.15 K) 53.1 ± 3; (333.15 K) 48.8 ± 2.7; (343.15 K) 45.1 ± 2.5; (353.15 K) 41.8 ± 2.3. Moreover, the activity coefficient (363.15 K) is 39 ± 2.2.
With `CCCCCCC` [heptane] + CCCCn1cc[n+](C)c1.O=[N+]([O-])[O-], the activity coefficient was 105 ± 5.9 (303.15 K); 97.1 ± 5.4 (313.15 K); 89.9 ± 5 (323.15 K); 83.6 ± 4.7 (333.15 K); 78.1 ± 4.4 (343.15 K); 73.2 ± 4.1 (353.15 K). For the same compound, the activity coefficient (363.15 K) was found to be 68.9 ± 3.8.
Regarding `CCCO` [propan-1-ol] + CCCCn1cc[n+](C)c1.O=[N+]([O-])[O-], the activity coefficient by setting is: (303.15 K) 0.765 ± 0.04; (313.15 K) 0.732 ± 0.039; (323.15 K) 0.706 ± 0.038; (333.15 K) 0.687 ± 0.037; (343.15 K) 0.674 ± 0.037; (353.15 K) 0.662 ± 0.037. The activity coefficient (363.15 K) worked out at 0.654 ± 0.036.
